From ChEMBL document CHEMBL1123299, “New antiarrhythmic agents. 2,2,5,5-Tetramethyl-3-pyrroline-3-carboxamides and 2,2,5,5-tetramethylpyrrolidine-3-carboxamindes” (J Med Chem, 1986)

Assays:
Rattus norvegicus [1] = organism: Rattus norvegicus; test: Relative potency with reference to quinidine; assay type: functional
[2] = Acute toxicity determined after intravenal administration in mice; assay type: organism-based; details: mouse, in vivo, iv
Rattus norvegicus [3] = test: Effective dose against aconitine-induced arrhythmia after intravenal administration in anesthetized rats; assay type: functional
Rattus norvegicus [4] = test: Incidence of arrhythmias in rats after a intravenal administration at 4 mg/kg, expressed as no. of positive cases out of no. of tested cases (10); assay type: functional
Rattus norvegicus [5] = test: Tested for incidence of arrhythmias in rats after a intravenal administration of 2 mg/kg expressed as no. of positive cases out of no. of tested cases (10); assay type: functional
Cavia porcellus [6] = test: Amount of ouabain needed for production of ventricular arrhythmias that causes death in guinea pig by cardiac arrest at a dose of 2 mg/kg iv given 5 min prior; assay type: functional, Cardiac ventricle
Cavia porcellus [7] = test: Amount of ouabain needed for production of ventricular fibrillation at a dose of 2 mg/kg (iv given 5 min prior) in guinea pig; assay type: functional, Cardiac ventricle
Cavia porcellus [8] = test: Amount of ouabain needed for production of ventricular extra-systoles at a dose of 2 mg/kg (iv given 5 min prior) in guinea pig; assay type: functional, Cardiac ventricle

| Structure (SMILES) | Relative potency (Rattus norvegicus [1]) | LD50 [2] [mg/kg] | ED150 (Rattus norvegicus [3]) [mg/kg] | No. of positive cases (Rattus norvegicus [4]) | No. of positive cases (Rattus norvegicus [5]) | Average dose (Cavia porcellus [6]) [µg/kg] | Average dose (Cavia porcellus [7]) [µg/kg] | Average dose (Cavia porcellus [8]) [µg/kg] |
| --- | --- | --- | --- | --- | --- | --- | --- | --- |
| C/C=C/c1ccc(OCC(=O)NCC(C)(C)CNC(=O)C2=CC(C)(C)NC2(C)C)c(OC)c1 | 3.1 | 31 | 3.9 | 6 |  |  |  |  |
| CC1(C)C=C(C(=O)NCC(O)CNC(=O)c2cccs2)C(C)(C)N1 (stereo not drawn) | 1.77 | 65 | 6.7 | 7 |  |  |  |  |
| COc1cccc(CNCCCNC(=O)C2=CC(C)(C)NC2(C)C)c1OCc1ccccc1 | 56.7 | 6.2 | 0.21 | 10 |  |  |  |  |
| C=CCOc1ccc(CNCCCNC(=O)C2=CC(C)(C)NC2(C)C)cc1 | 4.1 | 28 | 2.9 | 6 |  |  |  |  |
| CC1(C)C=C(C(=O)NCCNCc2ccc(Cl)cc2)C(C)(C)N1 | 2.2 | 82 | 5.4 | 5 |  |  |  |  |
| COc1ccc(CNCCCNC(=O)C2=CC(C)(C)NC2(C)C)c(OC)c1 | 7 | 16 | 1.7 | 9 |  |  |  |  |
| COc1cccc(CNCCCNC(=O)C2=CC(C)(C)NC2(C)C)c1O | 3.5 | 26 | 3.4 | 10 |  |  |  |  |
| Cc1cccc(C)c1NC(=O)C(NC(=O)C1=CC(C)(C)NC1(C)C)c1ccccc1 (stereo not drawn) | 15.3 | 7.6 | 0.78 |  | 10 |  |  |  |
| Cc1cccc(C)c1NC(=O)C(C)NCCCNC(=O)C1CC(C)(C)NC1(C)C (stereo not drawn) | 5.1 | 39 | 2.3 | 10 |  |  |  |  |
| CC1(C)C=C(C(=O)NCCCNC(=O)CSc2ccccc2)C(C)(C)N1 | 1.7 |  | 6.9 | 7 |  |  |  |  |
| C=CCOc1cccc(CNCCCNC(=O)C2=CC(C)(C)NC2(C)C)c1 | 4.4 | 34 | 2.7 |  | 7 |  |  |  |
| Cc1cccc(C)c1NC(=O)C(C)NCCCNC(=O)C1=CC(C)(C)NC1(C)C (stereo not drawn) | 9.1 | 26 | 1.3 | 10 |  |  |  |  |
| CC1(C)C=C(C(=O)NCCCNCc2ccccc2OCc2ccccc2)C(C)(C)N1 | 19.8 | 9 | 0.6 |  | 10 |  |  |  |
| C/C=C/c1ccc(OC(C)C(=O)NCCCNC(=O)C2=CC(C)(C)NC2(C)C)c(OC)c1 (stereo not drawn) | 4.4 | 14 |  | 7 |  |  |  |  |
| CC1(C)CC(C(=O)NCCCNCc2ccccc2Cl)C(C)(C)N1 (stereo not drawn) | 4.9 | 31 | 2.4 | 7 |  |  |  |  |
| Cc1cccc(C)c1NC(=O)CNC(=O)C1CC(C)(C)NC1(C)C (stereo not drawn) | 14.2 | 40 | 0.84 | 10 |  | 319.9 | 290.9 | 196.9 |
| CC1(C)C=C(C(=O)NCC(O)CNCc2cccs2)C(C)(C)N1 (stereo not drawn) | 1.6 | 49 | 7.6 | 8 |  |  |  |  |
| C=CCOc1ccc(CNCCCNC(=O)C2=CC(C)(C)NC2(C)C)cc1OC | 5.4 | 21 | 2.2 | 10 |  |  |  |  |
| CC1(C)C=C(C(=O)NCCCNCc2cccc(O)c2)C(C)(C)N1.Cl | 1.4 | 13 | 8.5 | 4 |  |  |  |  |
| C=CCc1ccc(OCC(=O)NCCNC(=O)C2=CC(C)(C)NC2(C)C)c(OC)c1 | 1.9 | 11 | 6.3 | 7 |  |  |  |  |
| CC1(C)C=C(C(=O)NCCCNCc2ccc(C(F)(F)F)cc2)C(C)(C)N1 | 2.5 | 65 | 4.8 | 7 |  |  |  |  |
| CC1(C)C=C(C(=O)NCCCNCc2cccc(Oc3ccccc3)c2)C(C)(C)N1 | 12.4 | 11 | 0.96 |  | 10 |  |  |  |
| C=CCc1cc(C)ccc1OCC(=O)NCCNC(=O)C1=CC(C)(C)NC1(C)C |  | 19 |  |  | 3 |  |  |  |
| CC1(C)C=C(C(=O)NCCCNC(=O)COc2ccccc2)C(C)(C)N1 | 4.6 | 49 | 2.6 | 10 |  |  |  |  |
| C=CCOc1ccccc1CNCCCNC(=O)C1CC(C)(C)NC1(C)C (stereo not drawn) | 5.7 | 13 | 2.1 |  | 10 |  |  |  |
| CC1(C)CC(C(=O)NCCCNCc2ccsc2)C(C)(C)N1 (stereo not drawn) | 0.9 |  |  | 7 |  |  |  |  |

| Structure (SMILES) | Relative potency (Rattus norvegicus [1]) | LD50 [2] [mg/kg] | ED150 (Rattus norvegicus [3]) [mg/kg] | No. of positive cases (Rattus norvegicus [4]) | No. of positive cases (Rattus norvegicus [5]) | Average dose (Cavia porcellus [6]) [µg/kg] | Average dose (Cavia porcellus [7]) [µg/kg] | Average dose (Cavia porcellus [8]) [µg/kg] |
| --- | --- | --- | --- | --- | --- | --- | --- | --- |
| Cc1nc2ccccc2c(=O)n1CCCNC(=O)C1=CC(C)(C)NC1(C)C | 2.6 |  |  | 10 |  |  |  |  |
| COc1cc(CNCCCNC(=O)C2=CC(C)(C)NC2(C)C)ccc1O | 25.3 | 8.7 | 0.47 |  | 10 |  |  |  |
| COc1cc(OCc2ccccc2)ccc1CNCCCNC(=O)C1=CC(C)(C)NC1(C)C | 17.2 | 13 | 0.69 | 10 |  |  |  |  |
| CC1(C)C=C(C(=O)NCCN2C(=O)c3ccccc3C2=O)C(C)(C)N1 | 1.5 |  |  | 7 |  |  |  |  |
| CC1(C)C=C(C(=O)NCCCNCc2ccccc2)C(C)(C)N1 | 3.3 |  |  | 9 |  |  |  |  |
| CC1(C)C=C(C(=O)NCCCNCc2cccc(OCc3ccccc3)c2)C(C)(C)N1 | 16.1 | 7 | 0.74 |  | 10 |  |  |  |
| C/C=C/c1ccc(OCC(=O)NCCCNC(=O)C2=CC(C)(C)NC2(C)C)c(OC)c1 | 5.4 | 30 |  | 7 |  | 284.7 | 250.9 | 201.1 |
| CC1(C)C=C(C(=O)NCCNCc2ccccc2O)C(C)(C)N1 | 11.9 | 30 | 1 | 10 |  |  |  |  |
| C/C=C/c1ccc(OCC(=O)NCCNC(=O)C2=CC(C)(C)NC2(C)C)c(OC)c1 | 2.9 | 18 |  | 7 |  |  |  |  |
| C=CCOc1c(CNCCCNC(=O)C2=CC(C)(C)NC2(C)C)cccc1OC | 7 | 15 | 1.7 | 10 |  |  |  |  |
| CC1(C)C=C(C(=O)NCC(O)CN2C(=O)c3ccccc3C2=O)C(C)(C)N1 (stereo not drawn) | 3.9 |  |  | 10 |  |  |  |  |
| CC1(C)CC(C(=O)NCCCNCc2cccs2)C(C)(C)N1 (stereo not drawn) | 2.8 |  |  | 10 |  |  |  |  |
| CC1(C)C=C(C(=O)NCCCNCc2ccc(OCc3ccccc3)cc2)C(C)(C)N1 | 9.2 | 20 | 1.3 |  | 8 |  |  |  |
| C=CCc1cc(C)ccc1OCC(=O)NCCCNC(=O)C1=CC(C)(C)NC1(C)C | 4.9 |  |  |  | 8 |  |  |  |
| CC1(C)C=C(C(=O)NCCCNCc2ccccc2O)C(C)(C)N1 | 2.5 | 28 | 4.7 | 7 |  |  |  |  |
| CC1(C)C=C(C(=O)NCCCNCc2ccc(Oc3ccccc3)cc2)C(C)(C)N1 | 9.2 | 23 | 1.3 | 10 |  |  |  |  |
| CC1(C)C=C(C(=O)NCCCNCc2ccccc2OCC(N)=O)C(C)(C)N1 |  | 10 |  |  | 1 |  |  |  |
| COc1ccccc1CNCCCNC(=O)C1=CC(C)(C)NC1(C)C.Cl | 7.4 | 7.9 | 1.6 | 10 |  |  |  |  |
| CC1(C)C=C(C(=O)NCCCNC(=O)Cc2cccs2)C(C)(C)N1 | 3.8 |  |  | 8 |  |  |  |  |
| C=CCc1ccc(OC(C)C(=O)NCCNC(=O)C2=CC(C)(C)NC2(C)C)c(OC)c1 (stereo not drawn) | 4.3 | 9.3 | 2.8 |  | 7 |  |  |  |
| CC1(C)C=C(C(=O)NCCCNCc2cccs2)C(C)(C)N1 | 2.2 | 65 | 5.3 | 7 |  |  |  |  |
| Cc1cccc(C)c1NC(=O)C(C)NC(=O)C1=CC(C)(C)NC1(C)C (stereo not drawn) | 6.3 | 15 | 1.9 | 10 |  | 361 | 325.3 | 208.9 |
| Cc1cccc(C)c1NC(=O)CNC(=O)C1=CC(C)(C)NC1(C)C | 4.9 | 53 | 2.4 | 10 |  | 331.4 | 284.2 | 214.2 |
| COc1cc(CNCCCNC(=O)C2=CC(C)(C)NC2(C)C)cc(OC)c1OC | 3.1 | 22 | 3.8 | 9 |  |  |  |  |
| CC1(C)CC(C(=O)NCCCN2C(=O)c3ccccc3C2=O)C(C)(C)N1 (stereo not drawn) | 2.6 |  |  | 10 |  |  |  |  |
| C=C[C@H]1CN2CC[C@H]1C[C@@H]2[C@@H](O)c1ccnc2ccc(OC)cc12 [QUINIDINE] |  |  |  |  |  | 313.9 | 291.1 | 195.4 |
